PMC5831858, “Pharmacological characterisation of CR6086, a potent prostaglandin E2 receptor 4 antagonist, as a new potential disease-modifying anti-rheumatic drug” (Arthritis Research & Therapy, 2018)
Read-outs that look alike come from different tables or passages of the source.

Assays:
VEGF gene expression = VEGF gene expression in THP-1 cells differentiated to macrophages; format: cell-based; settings: Homo sapiens, LPS 10 ng/ml + PGE2 10 nM, read-out: IC50 transcription of VEGF
Protocol: The human monocyte cell line THP-1 was obtained from the ATCC and was grown according to the instructions provided. THP-1 monocytic cells were differentiated to macrophages with 100 nM phorbol 12-myristate 13-acetate (PMA) for 4 days. Macrophages were then stimulated with lipopolysaccharide (LPS) 10 ng/ml and PGE2 10 nM for 3 or 24 h. Total RNA was purified using the ABI Prism 6100 Nucleic Acid PrepStation (Applied Biosystems, Foster City, CA, USA) and retrotranscribed using the High-Capacity cDNA Reverse Transcription Kit (Thermo Fisher Scientific). RT-PCR analysis was performed using the Applied Biosystems 7500 Fast Real-Time PCR System using specific TaqMan assays (number Hs00174131_m1 for IL-6, number Hs00900054_m1 for vascular endothelial growth factor A [VEGFA]; Thermo Fisher Scientific) and, as an endogenous control, the 18S Pre-Developed TaqMan® Assay (Thermo Fisher Scientific). The data analysis, with normalisation on 18S amplified values, was done following Thermo Fisher Scientific’s specific instructions for gene expression relative quantification. All individual data are the result of at least three different analyses for each sample.

[1] = CR6086 pharmacokinetics in rats; format: in vivo, rat; settings: for Cmax / AUC / Tmax: rat, plasma, oral; for AUC: read-out: AUC24; for Tmax: median
Protocol: CR6086 concentrations in rat plasma were determined by high-performance liquid chromatography (Agilent 1200 series; Agilent Technologies, Santa Clara, CA, USA) coupled with a triple-quadrupole mass spectrometer (API 4000 QTRAP; SCIEX, Concord, ON, Canada). A ZORBAX SB-C18 2.0 × 50-mm, 3.5-μm column (Agilent Technologies) in isocratic conditions was used with mobile phase 0.1% formic acid in water/acetonitrile (68:32 vol/vol). The method was linear within the dynamic range 1.0–10,000 ng/ml (lower to upper limit of quantification). CR6086 plasma protein binding was determined in the 0.2–200 μM concentration range using [^14C]CR6086 and equilibrium dialysis. EP4 receptor occupancy (RO) was calculated on the basis of CR6086 concentrations according to the following formula: RO%=Cave/Cave+Ki×100,
The pharmacokinetics of CR6086 were investigated in the animal species used as rheumatoid arthritis models, employing the same administration route and dose range. […] Therefore, for ethical reasons, all pharmacokinetic experiments were conducted in naive animals.

A3 = A3 (Homo sapiens, UniProt P0DMS8); assay: Adenosine receptor A3 binding; settings: [^125I]AB-MECA, Human recombinant HEK-293 cells, read-out: CR6086 Activity at 10µM
α1 (non-selective) = assay: Adrenergic receptor α1 binding; settings: [^3H]prazosin, Rat cerebral cortex
M3 = M3 (Homo sapiens, UniProt P20309); assay: Muscarinic acetylcholine receptor M3 binding; settings: [^3H]4-DAMP, Human recombinant CHO cells, read-out: CR6086 Activity at 10µM
NK1 = NK1 (Homo sapiens, UniProt P25103); assay: Neurokinin receptor NK1 binding; settings: [^125I]BH-SP, U-373MG cells (endogenous), read-out: CR6086 Activity at 10µM
Y2 = Y2 (Homo sapiens, UniProt P49146); assay: Neuropeptide Y receptor Y2 binding; settings: [^125I]peptide YY, KAN-TS cells, read-out: CR6086 Activity at 10µM
κ (KOP) = κ (KOP) (Homo sapiens, UniProt P41145); assay: Opioid receptor κ (KOP) binding; settings: [^3H]U 69593, Human recombinant CHO cells, read-out: CR6086 Activity at 10µM
NOP (ORL1) = NOP (ORL1) (Homo sapiens, UniProt P41146); assay: Opioid receptor NOP (ORL1) binding; settings: [^3H]nociceptin, Human recombinant HEK-293 cells, read-out: CR6086 Activity at 10µM
MC4 = MC4 (Homo sapiens, UniProt P32245); assay: MC4 receptor binding; settings: [^125I]NDP-α-MSH, Human recombinant CHO cells, read-out: CR6086 Activity at 10µM
PDGF = PDGF receptor binding; settings: [^125I]PDGF BB, Balb/c 3T3 cells
TNF-α = TNF-α receptor binding; settings: [^125I]TNF-α, U-937 cells
5-HT transporter = 5-HT transporter (Homo sapiens, UniProt P31645); assay: 5-HT transporter binding; settings: [^3H]imipramine, Human recombinant CHO cells, read-out: CR6086 Activity at 10µM
Chain of 5-HT transporter (P31645 whole entry): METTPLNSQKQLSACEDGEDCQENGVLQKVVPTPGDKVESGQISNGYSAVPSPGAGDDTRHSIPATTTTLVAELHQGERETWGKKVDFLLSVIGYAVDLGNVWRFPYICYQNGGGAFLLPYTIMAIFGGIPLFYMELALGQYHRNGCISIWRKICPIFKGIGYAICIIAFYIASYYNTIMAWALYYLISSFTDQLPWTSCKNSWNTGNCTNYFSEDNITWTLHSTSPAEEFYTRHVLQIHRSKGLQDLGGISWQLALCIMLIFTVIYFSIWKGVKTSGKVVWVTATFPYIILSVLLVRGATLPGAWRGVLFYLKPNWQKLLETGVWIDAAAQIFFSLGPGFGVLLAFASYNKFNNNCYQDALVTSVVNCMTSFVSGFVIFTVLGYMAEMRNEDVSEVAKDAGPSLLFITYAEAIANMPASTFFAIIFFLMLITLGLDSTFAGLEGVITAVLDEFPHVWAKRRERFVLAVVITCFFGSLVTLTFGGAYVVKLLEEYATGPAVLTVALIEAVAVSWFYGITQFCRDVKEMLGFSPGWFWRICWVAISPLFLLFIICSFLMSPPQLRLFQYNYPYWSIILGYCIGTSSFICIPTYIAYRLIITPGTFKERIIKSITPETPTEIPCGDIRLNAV

Chain of M3 (P20309 whole entry): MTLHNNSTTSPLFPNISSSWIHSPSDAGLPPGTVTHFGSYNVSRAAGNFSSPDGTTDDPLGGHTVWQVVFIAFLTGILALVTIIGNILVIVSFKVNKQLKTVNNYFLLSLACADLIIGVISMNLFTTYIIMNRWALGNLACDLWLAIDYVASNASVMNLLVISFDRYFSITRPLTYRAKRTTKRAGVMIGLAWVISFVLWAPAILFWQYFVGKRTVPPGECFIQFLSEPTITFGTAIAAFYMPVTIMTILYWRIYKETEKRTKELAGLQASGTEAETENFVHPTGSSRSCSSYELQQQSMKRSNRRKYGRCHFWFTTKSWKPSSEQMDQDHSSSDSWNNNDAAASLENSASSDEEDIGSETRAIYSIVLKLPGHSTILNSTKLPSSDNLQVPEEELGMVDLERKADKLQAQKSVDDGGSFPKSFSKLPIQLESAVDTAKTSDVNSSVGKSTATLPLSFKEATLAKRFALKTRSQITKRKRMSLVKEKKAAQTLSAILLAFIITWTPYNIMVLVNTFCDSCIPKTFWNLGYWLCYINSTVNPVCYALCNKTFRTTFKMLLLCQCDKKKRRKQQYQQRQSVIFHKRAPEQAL
Chain of κ (KOP) (P41145 whole entry): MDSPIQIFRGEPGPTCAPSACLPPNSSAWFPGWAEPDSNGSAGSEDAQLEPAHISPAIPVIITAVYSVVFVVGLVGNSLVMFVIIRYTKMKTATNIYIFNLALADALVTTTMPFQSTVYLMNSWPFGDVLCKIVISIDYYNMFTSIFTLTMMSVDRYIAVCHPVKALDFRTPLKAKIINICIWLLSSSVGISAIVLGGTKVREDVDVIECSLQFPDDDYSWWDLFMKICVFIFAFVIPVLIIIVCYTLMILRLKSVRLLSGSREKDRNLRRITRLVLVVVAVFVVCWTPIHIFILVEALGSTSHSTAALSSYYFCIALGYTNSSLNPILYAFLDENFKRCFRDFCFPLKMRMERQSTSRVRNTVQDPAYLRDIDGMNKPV
Chain of A3 (P0DMS8 whole entry): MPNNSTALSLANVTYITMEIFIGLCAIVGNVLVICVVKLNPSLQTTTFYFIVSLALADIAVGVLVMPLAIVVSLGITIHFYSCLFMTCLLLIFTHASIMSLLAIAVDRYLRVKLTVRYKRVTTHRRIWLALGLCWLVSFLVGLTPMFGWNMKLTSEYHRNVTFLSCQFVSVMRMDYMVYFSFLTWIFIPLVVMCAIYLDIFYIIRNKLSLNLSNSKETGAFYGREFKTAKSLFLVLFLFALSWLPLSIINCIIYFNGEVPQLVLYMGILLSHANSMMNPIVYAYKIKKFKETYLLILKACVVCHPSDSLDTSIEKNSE
Chain of NOP (ORL1) (P41146 whole entry): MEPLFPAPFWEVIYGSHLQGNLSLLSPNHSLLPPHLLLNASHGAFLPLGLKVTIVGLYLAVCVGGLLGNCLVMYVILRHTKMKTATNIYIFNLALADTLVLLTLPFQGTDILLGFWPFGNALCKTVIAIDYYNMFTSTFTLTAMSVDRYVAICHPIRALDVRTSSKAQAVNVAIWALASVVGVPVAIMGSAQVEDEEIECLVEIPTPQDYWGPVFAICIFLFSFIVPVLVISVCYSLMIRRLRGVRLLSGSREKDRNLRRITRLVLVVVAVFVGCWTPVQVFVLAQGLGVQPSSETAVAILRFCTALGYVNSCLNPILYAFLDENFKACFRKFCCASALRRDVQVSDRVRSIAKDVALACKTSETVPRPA
Chain of MC4 (P32245 whole entry): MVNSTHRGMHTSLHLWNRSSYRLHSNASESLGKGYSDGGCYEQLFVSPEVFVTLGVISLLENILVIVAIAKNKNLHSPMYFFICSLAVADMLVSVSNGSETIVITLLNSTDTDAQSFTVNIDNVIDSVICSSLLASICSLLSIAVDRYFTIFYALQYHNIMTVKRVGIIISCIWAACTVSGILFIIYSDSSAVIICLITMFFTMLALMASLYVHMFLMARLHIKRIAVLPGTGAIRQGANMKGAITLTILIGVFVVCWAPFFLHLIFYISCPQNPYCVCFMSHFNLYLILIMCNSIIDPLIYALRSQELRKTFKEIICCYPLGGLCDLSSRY
Chain of Y2 (P49146 whole entry): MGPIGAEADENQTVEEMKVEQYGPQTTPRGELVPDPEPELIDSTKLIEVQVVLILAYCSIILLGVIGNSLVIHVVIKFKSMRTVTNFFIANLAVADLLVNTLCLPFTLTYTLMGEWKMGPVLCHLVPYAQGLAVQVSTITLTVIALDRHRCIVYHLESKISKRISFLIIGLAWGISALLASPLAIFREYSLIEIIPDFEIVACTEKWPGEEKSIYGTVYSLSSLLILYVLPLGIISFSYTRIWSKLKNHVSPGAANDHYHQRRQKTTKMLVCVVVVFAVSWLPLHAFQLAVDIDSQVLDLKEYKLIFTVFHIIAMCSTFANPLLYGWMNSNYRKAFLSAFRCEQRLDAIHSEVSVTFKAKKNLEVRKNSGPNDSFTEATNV
Chain of NK1 (P25103 whole entry): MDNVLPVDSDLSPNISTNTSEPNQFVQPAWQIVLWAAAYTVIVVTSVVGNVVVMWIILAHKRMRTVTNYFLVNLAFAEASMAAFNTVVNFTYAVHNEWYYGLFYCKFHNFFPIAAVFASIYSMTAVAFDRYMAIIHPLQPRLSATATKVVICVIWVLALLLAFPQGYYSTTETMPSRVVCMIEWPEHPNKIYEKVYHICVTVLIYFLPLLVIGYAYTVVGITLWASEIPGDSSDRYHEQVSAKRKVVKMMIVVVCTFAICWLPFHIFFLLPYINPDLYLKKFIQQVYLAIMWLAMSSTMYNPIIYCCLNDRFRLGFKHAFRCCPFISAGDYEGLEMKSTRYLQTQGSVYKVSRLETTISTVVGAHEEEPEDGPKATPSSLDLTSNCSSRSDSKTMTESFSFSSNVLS

In the case of `O=C([O-])c1ccc(C2(NC(=O)[C@H]3CC4(CCN3Cc3ccc(C(F)(F)F)cc3)CC4)CC2)cc1.[Na+]` [CR6086, Sodium (R)-4-(1-(6-(4-(trifluoromethyl)benzyl)-6-azaspiro[2.5]octane-5-carboxamido)cyclopropyl)benzoate], the IC50 (VEGF gene expression) is reported as 25 nM, the “unbound Cave” value ([1]; 3 mg/kg, 24-h dosing interval, single dose) is reported as 27.6 ng/mL and the “unbound Cave adjusted for the accumulation ratio” value ([1]; 3 mg/kg, repeated doses) is reported as 32.8 ng/mL. The “dose linearity of pharmacokinetics” value ([1]; 1–30 mg/kg oral) was “linear pharmacokinetics”, the oral absorption ([1]; 1–30 mg/kg oral) was “rapidly and completely absorbed” and the “accumulation ratio after repeated doses” value ([1]; male rats) was 1.19. For the same molecule, the Cmax ([1]; 1 mg/kg) was 1250 ± 67 ng/mL, the AUC ([1]; 1 mg/kg, AUC4 for the dose of 1 mg/kg) was 2170 ± 338 ng·h/mL and the Tmax ([1]; 1 mg/kg) was 15 min. It also gave a Cmax ([1]; 3 mg/kg) of 3230 ± 173 ng/mL, a Tmax ([1]; 3 mg/kg) of 15 min and an AUC ([1]; 3 mg/kg) of 13700 ± 3990 ng·h/mL. The Cmax ([1]; 10 mg/kg) was 14500 ± 3400 ng/mL, the Tmax ([1]; 10 mg/kg) was 30 min and the AUC ([1]; 10 mg/kg) was 58000 ± 6730 ng·h/mL. The Cmax ([1]; 15 mg/kg) was 11900 ± 2040 ng/mL, the Tmax ([1]; 15 mg/kg) was 30 min and the AUC ([1]; 15 mg/kg) was 61600 ± 10600 ng·h/mL. It also gave a Cmax ([1]; 30 mg/kg) of 34500 ± 6400 ng/mL, a Tmax ([1]; 30 mg/kg) of 60 min and an AUC ([1]; 30 mg/kg) of 206000 ± 46000 ng·h/mL. For the same molecule, the inhibition at 10 µM (A3) was < 20%, the “CR6086 Activity at 10µM” value (α1 (non-selective)) was “IN (IN = < 20% displacement or inhibition (all tables))” and the inhibition at 10 µM (M3) was < 20%. The inhibition at 10 µM (NK1) was < 20%, the inhibition at 10 µM (Y2) was < 20% and the inhibition at 10 µM (κ (KOP)) was < 20%. The inhibition at 10 µM (NOP (ORL1)) was < 20%, the inhibition at 10 µM (MC4) was < 20% and the “CR6086 Activity at 10µM” value (PDGF) was “IN (IN = < 20% displacement or inhibition (all tables))”. The “CR6086 Activity at 10µM” value (TNF-α) was “IN (IN = < 20% displacement or inhibition (all tables))” and the inhibition at 10 µM (5-HT transporter) was < 20%.
